Experimental data as given in patent US5270308A, “1,3-benzoxazine derivatives, their production and use” (Takeda Chemical Industries, Ltd., priority 1990, dated 1993).

Columns and labels:
[1] = tested on: spontaneously hypertensive rat; assay: Hypotensive activity in spontaneously hypertensive rats; format: in vivo; conditions: po, orally, conscious spontaneously hypertensive rat, male, 20 to 23 weeks old, read-out: maximum effect (%) (mean ratio of maximum decrease in the blood pressure)
Experimental: Hypotensive Activity in Rats
Method: A spontaneously hypertensive rat (male, 20 to 23 weeks old) was operated in advance for retaining a cannula for blood pressure measurement in the left femoral artery. The experiment was carried out for the rat when waking on the next day after the operation. The cannula was connected with a transducer (Specrtramed) upon the experiment and the blood pressure was measured (Nippon Koden, Japan). A test compound was suspended in gum arabic and the suspension was administered orally.

[2] = tested on: Rat Aorta Sample (constriction by TEA and Ba); assay: Vasorelaxation activity in rat aorta sample: effect on constriction caused by tetraethylammonium chloride (TEA) and barium chloride (Ba); format: cell-based, Male Wister rats; conditions: TEA (30 to 45 mM) and Ba (0.3 mM), rat aorta ring, read-out: constriction inhibitory ratio (%)
Experimental: (§1) Vasorelaxation Activity in Rat Aorta Sample
Effect on Relaxation Caused by Tetraethylammonium Chloride (TEA) and Barium Chloride (Ba)
Method: Male Wister rats (10 to 13 weeks old) were used for the experiment. After dehematization, the aorta was excised and a ring sample (5 mm) was prepared. The sample was suspended in a bath filled with oxygenated (95% O2 -5% CO2) Krebs solution (36° C.). The ring sample was fixed at one end and the other end was connected to a transducer (Nippon Koden, Japan) for recording tension and the tension was measured. After a stabilization period of 1 hour, TEA (30 to 45 mM) and Ba (0.3 mM) were added to the bath to cause vasoconstriction. After the constriction has reached a steady state (after about 15 minutes), a test compound was added to the bath and its relaxation activity was measured.
Result: The results are shown in Table 3 in terms of the inhibitory ratio of the test compound.

[3] = tested on: Rat Aorta Sample (constriction by KCl); assay: Vasorelaxation activity in rat aorta sample: effect on constriction caused by potassium chloride (KCl); format: cell-based, Male Wister rats; conditions: KCl (80 mM), rat aorta ring, read-out: constriction inhibitory ratio (%)
Experimental: as §1
Effect on Relaxation Caused by Potassium Chloride (KCl)
Method: According to the same manner as that described in Experiment 1, this experiment was carried out except that KCl (80 mM) was used instead of TEA and Ba.
Result: The results are shown in Table 4 in terms of the inhibitory ratio of the test compound.

Compound	inhibition in vivo at 1 mg/kg [1] [%]	inhibition at 3 µM [2] [%]	inhibition at 10 µM [2] [%]	inhibition at 3 µM [3] [%]	inhibition at 10 µM [3] [%]	inhibition at 1 µM [2] [%]	inhibition at 1 µM [3] [%]
CC1(C)N=C(c2cccc[n+]2[O-])c2cc(C#N)ccc2O1 [Compound 20, 2-(6-cyano-2,2-dimethyl-2H-1,3-benzoxazin-4-yl)pyridine N-oxide]	39	35	81	-4	-2		
CC1(C)N=C(c2cccc[n+]2[O-])c2cc(Br)ccc2O1 [Compound 23, 2-(6-bromo-2,2-dimethyl-2H-1,3-benzoxazin-4-yl)pyridine N-oxide]	32	82	100	1	4	19	-1
CC1(C)N=C(c2cccc[n+]2[O-])c2cc(Cl)ccc2O1 [Compound 24, 2-(6-chloro-2,2-dimethyl-2H-1,3-benzoxazin-4-yl)pyridine N-oxide]	38	76	94		-11		
CC1(C)N=C(c2cccc[n+]2[O-])c2cc([N+](=O)[O-])ccc2O1 [Compound 29, 2-(2,2-dimethyl-6-nitro-2H-1,3-benzoxazin-4-yl)pyridine N-oxide]	61					74	-8
CCOc1ccc[n+]([O-])c1C1=NC(C)(C)Oc2ccc(C#N)cc21 [Compound 38, 2-(6-cyano-2,2-dimethyl-2H-1,3-benzoxazin-4-yl)-3-ethoxypyridine N-oxide]	58						
Cc1cc2c(cc1Br)C(c1cccc[n+]1[O-])=NC(C)(C)O2 [Compound 47, 2-(6-bromo-2,2,7-trimethyl-2H-1,3-benzoxazin-4-yl)pyridine N-oxide]		100		2		72	-1
Cc1cc2c(cc1[N+](=O)[O-])C(c1cccc[n+]1[O-])=NC(C)(C)O2 [Compound 49, 2-(2,2,7-trimethyl-6-nitro-2H-1,3-benzoxazin-4-yl)pyridine N-oxide]		77	86	-6	-3	28	-7
C#Cc1ccc2c(c1)C(c1cccc[n+]1[O-])=NC(C)(C)O2 [Compound 53, 2-(6-ethynyl-2,2-dimethyl-2H-1,3-benzoxazin-4-yl)pyridine N-oxide]			89		-4		
CC(=O)c1ccc2c(c1)C(c1cccc[n+]1[O-])=NC(C)(C)O2 [Compound 56, 2-(6-acetyl-2,2-dimethyl-2H-1,3-benzoxazin-4-yl)pyridine N-oxide]	22						
Cc1cc2c(cc1C#N)C(c1cccc[n+]1[O-])=NC(C)(C)O2 [Compound 65, 2-(6-cyano-2,2,7-trimethyl-2H-1,3-benzoxazin-4-yl)pyridine N-oxide]		48	74	-2	0		
CC1(C)N=C(c2cccc[n+]2[O-])c2cc(OC(F)(F)F)ccc2O1 [Compound 69, 2-(6-trifluoromethoxy-2,2-dimethyl-2H-1,3-benzoxazin-4-yl)pyridine N-oxide]	44	45	81	-1	2		
CC1(C)N=C(c2cccc[n+]2[O-])c2cc(C(F)(F)F)ccc2O1 [Compound 75, 2-(6-trifluoromethyl-2,2-dimethyl-2H-1,3-benzoxazin-4-yl)pyridine N-oxide]	54	91	100	1	2	38	-2
CC1(C)N=C(c2cccc[n+]2[O-])c2cc(C(F)(F)C(F)(F)F)ccc2O1 [Compound 77, 2-(6-pentafluoroethyl-2,2-dimethyl-2H-1,3-benzoxazin-4-yl)pyridine N-oxide]	25	45	98	3	10		
CC1(C)N=C(c2cccc[n+]2[O-])c2cc(Cl)c(Cl)cc2O1 [Compound 79, 2-(6,7-dichloro-2,2-dimethyl-2H-1,3-benzoxazin-4-yl)pyridine N-oxide]	36	57	65	-1	3	24	-5
CC1(C)N=C(c2cccc[n+]2[O-])c2cc(Br)c(Cl)cc2O1 [Compound 89, 2-(6-bromo-7-chloro-2,2-dimethyl-2H-1,3-benzoxazin-4-yl)pyridine 1-oxide]	33	67	71	-8	-3	59	-11
CC1(C)N=C(c2cccc[n+]2[O-])c2cc(C#N)c(Cl)cc2O1 [Compound 91, 2-(7-chloro-6-cyano-2,2-dimethyl-2H-1,3-benzoxazin-4-yl)pyridine N-oxide]	39						
CC1(C)N=C(c2cccc[n+]2[O-])c2cc(Br)c(Br)cc2O1 [Compound 93, 2-(6,7-dibromo-2,2-dimethyl-2H-1,3-benzoxazin-4-yl)pyridine N-oxide]	22	71				52	
CC1(C)N=C(c2cccc[n+]2[O-])c2cc(Br)c(F)cc2O1 [Compound 95, 2-(6-bromo-7-fluoro-2,2-dimethyl-2H-1,3-benzoxazin-4-yl)pyridine N-oxide]	55						
CC1(C)N=C(c2cccnc2)c2cc(Br)ccc2O1 [Compound 98]				-6			-4
CCOc1ccc[n+]([O-])c1C1=NC(C)(C)Oc2cc(Cl)c(Br)cc21 [Compound 117, 2-(6-bromo-7-chloro-2,2-dimethyl-2H-1,3-benzoxazin-4-yl)-3-ethoxypyridine N-oxide]	54						
COc1ccc[n+]([O-])c1C1=NC(C)(C)Oc2ccc(C(F)(F)F)cc21 [Compound 118, 2-(6-trifluoromethyl-2,2-dimethyl-2H-1,3-benzoxazin-4-yl)-3-methoxypyridineN-oxide]	43						
CCOc1ccc[n+]([O-])c1C1=NC(C)(C)Oc2ccc(Br)cc21 [Compound 119, 2-(6-bromo-2,2-dimethyl-2H-1,3-benzoxazin-4-yl)-3-ethoxypyridine N-oxide]	61						
CCOc1ccc[n+]([O-])c1C1=NC(C)(C)Oc2ccc(C(F)(F)F)cc21 [Compound 124, 3-ethoxy-2-(6-trifluoromethyl-2,2-dimethyl-2H-1,3-benzoxazin-4-yl)pyridine N-oxide]	48						
COc1ccc[n+]([O-])c1C1=NC(C)(C)Oc2ccc(C#N)cc21 [Compound 125, 2-(6-cyano-2,2-dimethyl-2H-1,3-benzoxazin-4-yl)-3-methoxypyridine N-oxide]	23						
COc1ccc[n+]([O-])c1C1=NC(C)(C)Oc2cc(Cl)c(Br)cc21 [Compound 126, 2-(6-bromo-7-chloro-2,2-dimethyl-2H-1,3-benzoxazin-4-yl)-3-methoxypyridine N-oxide]	49						
COc1ccc[n+]([O-])c1C1=NC(C)(C)Oc2ccc(Br)cc21 [Compound 129, 2-(6-bromo-2,2-dimethyl-2H-1,3-benzoxazin-4-yl)-3-methoxypyridine N-oxide]	55						
CC1(C)N=C(c2c(O)ccc[n+]2[O-])c2cc(Br)ccc2O1 [Compound 143, 2-(6-bromo-2,2-dimethyl-2H-1,3-benzoxadin-4-yl)-3-hydroxypyridine N-oxide]	54						
